Results from patent publication US20140336182A1, “Aurora Kinase Modulators and Method of Use” (Amgen Inc., priority 2013, published 2014).
Read-outs that look alike come from different tables or passages of the source.

Tested on: HeLa cells
Experiment: HeLa cell 24 hr ploidy assay (DNA content)
Assay type: cell-based
Details: Homo sapiens, HeLa, average, read-out: 24h_4NPloidy EC50_IP (uM Avg)
Outline: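 HeLa cells (1×10^4/well, MEM+10% FBS) cultured 24 h, treated with serially diluted compounds (0.25% DMSO final), then fixed, permeabilized and stained with Hoechst 33342 (0.5 ug/ml). Imaging quantified % 4N and >4N cells; EC50 IP and EC50 transit derived from dose curves.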

SMILES	EC50 (HeLa cells, 4N ploidy) [µM]	other results
COc1cnc2c(Oc3ccc(Nc4nnc(-c5ccc6cc[nH]c6c5)c5ccccc45)cc3)ccnc2c1 [compound 206]	0.002	
O=C(c1cc2nccc(Sc3ccc(Nc4nnc(-c5ccccc5)c5ccccc45)cc3)c2s1)N1CCOCC1 [compound 313]	0.076	
O=C(c1cc2nccc(Sc3ccc(Nc4nnc(-c5ccc(Cl)cc5)c5ccccc45)cc3)c2s1)N1CCOCC1 [compound 314]	0.03	
COc1cnc2c(Oc3ccc(Nc4nnc(-c5ccc(C(C)C)cc5)c5ccccc45)cc3)ccnc2c1 [compound 155]		EC50 (4N ploidy): 0.068 µM
COc1cnc2c(Oc3ccc(Nc4nnc(-c5ccc(C)c(Cl)c5)c5ccccc45)cc3)ccnc2c1 [compound 224]	0.007	
CCCc1cc(-c2ccccc2)nnc1Nc1ccc(Oc2ccnc3cc(OC)cnc23)cc1 [compound 156]		EC50 (4N ploidy): 0.061 µM
COc1cnc2c(Sc3ccc(Nc4nnc(-c5ccc(OC)nc5)c5ccccc45)cc3)ccnc2c1 [compound 583]	0.005	
Clc1ccc(-c2nnc(Nc3ccc(Oc4ccnc5[nH]ccc45)cc3)c3ccccc23)cc1 [compound 241]	0.101	
COc1ccc2c(Oc3ccc(Nc4nnc(-c5ccc(Cl)cc5)c5c4CCC5)cc3)ccnc2c1 [compound 412]	> 1.2	
COc1cc2ncnc(Oc3ccc(Nc4nnc(-c5cc(C)ccn5)c5ccccc45)cc3)c2cc1OC [compound 123]		EC50 (4N ploidy): 0.077 µM
COc1cnc2c(Oc3ccc(Nc4nnc(-c5cc(F)ccc5OC)c5ccccc45)cc3)ccnc2c1 [compound 80]		EC50 (4N ploidy): 0.487 µM
COc1ccc2nccc(Oc3ccc(Nc4nnc(-c5cc(C)cs5)c5ccccc45)cc3)c2n1 [compound 552]	0.01	
COc1cnc2c(Sc3ccc(Nc4nnc(-c5ccc6nonc6c5)c5ccccc45)cc3)ccnc2c1 [compound 504]	0.006	
Cc1ccsc1-c1nnc(Nc2ccc(Oc3ccnc4cc(C#N)ccc34)cc2)c2ccccc12 [compound 184]	0.13	
COc1cccc(-c2nnc(Nc3ccc(Oc4ccnc5cc(OC)cnc45)cc3)c3ccccc23)c1 [compound 139]		EC50 (4N ploidy): 0.057 µM
CCc1cc(-c2ccccc2)nnc1Nc1ccc(Sc2ccnc3cc(OC)cnc23)cc1 [compound 274, 4-ethyl-N-(4-(7-methoxy-1,5-naphthyridin-4-ylthio)phenyl)-6-phenylpyridazin-3-amine]	0.029	
COc1cc2nncc(Oc3ccc(Nc4nnc(-c5ccc(Cl)cc5)c5ccccc45)cc3)c2cc1OC [compound 282]	≥ 1.2	
COc1cnc2c(Oc3ccc(Nc4nnc(-c5ccc(C)nc5F)c5ccccc45)cc3)ccnc2c1 [compound 178]	0.027	
COc1cc2nccc(Oc3ccc(Nc4nnc(-c5cccc(COC(C)=O)n5)c5ccccc45)cc3)c2cc1OC [compound 113]		EC50 (4N ploidy): 0.048 µM
COc1ccc2nccc(Sc3ccc(Nc4nnc(N5CCCCC5)c5ccccc45)cc3)c2n1 [compound 548]	0.036	
CNC(=O)c1cc(Sc2ccc(Nc3nnc(-c4ccc(Cl)cc4)c4ccccc34)cc2)ccn1 [compound 360]	0.413	
COc1cnc2c(Sc3ccc(Nc4nnc(OCCC5CCCCN5)c5ccccc45)cc3)ccnc2c1 (stereo not drawn) [Example 403, N-(4-(7-Methoxy-1,5-naphthyridin-4-ylthio)phenyl)-4-(2-(piperidin-2-yl)ethoxy)phthalazin-1-amine]	0.037	
COc1cnc2c([S+]([O-])c3ccc(Nc4nnc(-c5ccc(F)cc5)c5ccccc45)cc3)ccnc2c1 (stereo not drawn) [Example 410, 4-(4-fluorophenyl)-N-(4-(7-methoxy-1,5-naphthyridin-4-ylsulfinyl)phenyl)phthalazin-1-amine]		EC50 (HeLa cells): 0.26 µM
Clc1ccc(-c2nnc(Nc3ccc(Sc4ccnc5ccccc45)cc3)c3ccccc23)cc1 [compound 333]	≥ 1.2	
COc1cnc2c(Oc3ccc(Nc4nnc(-c5cccc(C)c5)c5ccccc45)cc3)ccnc2c1 [compound 317]	0.033	
Cc1csc(-c2nnc(Nc3ccc(Sc4ccnc5cc(OC(F)(F)F)ccc45)cc3)c3ccccc23)c1 [compound 499]	0.052	
Cc1ccc(-c2nnc(Nc3ccc(Sc4ccnc5cc(C6CC6)oc45)cc3)c3ccccc23)cc1N [compound 487]	0.006	
